The numbers were not newly measured in US9265822B2 (priority 2009, dated 2016), which cites them from elsewhere.

The test system of the series is 2009 H1N1 swine flu virus.

In the case of `NC12CC3CC(CC(C3)C1)C2` [amantadine], the “effectiveness against the 2009 "swine" flu” value (“effectiveness” for short) is “not proven effect”.
As for `CCOC(=O)C1=C[C@@H](OC(CC)CC)[C@H](NC(C)=O)[C@@H](N)C1` [oseltamivir], the “effectiveness” value was “effective”.
Take `CC(N)C12CC3CC(CC(C3)C1)C2` (stereo not shown) [rimantadine]: the “effectiveness” value is reported as “not proven effect”.
Turning to `CC(=O)N[C@H]1[C@H]([C@H](O)[C@H](O)CO)OC(C(=O)O)=C[C@@H]1N=C(N)N` [zanamivir], the “effectiveness” value is reported as “effective”.
